Laboratory results as given in the supplement of paper PMC4862054.

Columns and labels:
Details in all cases: incubation time: 72 h
[1] = system: MFM-223; experiment: normalised viability (% of control), CellTiter-Blue; higher = more viable cells (about 100 = DMSO control)
Summary of the method: (§1)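 Vehicle (100) and a positive kill control (0) anchored the normalisation of each plate, and Z'-factor was used for quality control. Breast cancer cell lines in 20 µl suspension were incubated 72 h over compound in 5 µl medium in 384-well plates, followed by CellTiter-Blue at 560/590 nm. The value is normalised viability at a single listed concentration of the series.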

[2] = system: HDQ-P1; experiment: as above
Summary of the method: as §1

[3] = system: HCC1599; experiment: as above
Summary of the method: as §1

[4] = system: BT-474; experiment: as above
Summary of the method: as §1

[5] = system: CAL-120; experiment: as above
Summary of the method: as §1

[6] = system: DU-4475; experiment: as above
Summary of the method: as §1

[7] = system: MDA-MB-231; experiment: as above
Summary of the method: as §1

[8] = system: CAL-148; experiment: as above
Summary of the method: as §1

[9] = system: HCC1937; experiment: as above
Summary of the method: as §1

[10] = system: MDA-MB-468; experiment: as above
Summary of the method: as §1

[11] = system: HCC1143; experiment: as above
Summary of the method: as §1

[12] = system: MDA-MB-453; experiment: as above
Summary of the method: as §1

[13] = system: Hs578T; experiment: as above
Summary of the method: as §1

[14] = system: CAL-51; experiment: as above
Summary of the method: as §1

[15] = system: MDA-MB-436; experiment: as above
Summary of the method: as §1

[16] = system: CAL-85-1; experiment: as above
Summary of the method: as §1

[17] = system: BT-549; experiment: as above
Summary of the method: as §1

[18] = system: SK-BR-3; experiment: as above
Summary of the method: as §1

[19] = system: HDQ-P1; experiment: drug sensitivity score (DSS), CellTiter-Glo (DSS (AUC-based score)); higher = stronger drug effect (viability inhibition or cytotoxicity); extreme values may be limits of the assay
Summary of the method: (§2)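 The area under the fitted dose-response curve was used to calculate the drug sensitivity score. Cells from breast cancer lines were incubated for 72 h in 384-well plates with compound at 5 concentrations spaced 10-fold over a 10,000-fold range specific to each compound. Plates were read for CellTox Green and then CellTiter-Glo, and normalised to 0.1 % DMSO and a positive kill control.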

[20] = system: BT-474; experiment: as above
Summary of the method: as §2

[21] = system: MCF-10A; experiment: as above
Summary of the method: as §2

[22] = system: MDA-MB-468; experiment: as above
Summary of the method: as §2

[23] = system: MDA-MB-453; experiment: as above
Summary of the method: as §2

[24] = system: Hs578T; experiment: as above
Summary of the method: as §2

[25] = system: HDQ-P1; experiment: normalised viability (% of control), CellTiter-Blue; higher = more viable cells (about 100 = DMSO control); remark: listed apart in the source
Description: (§3)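 DSRT, CellTiter-Blue viability, 72 h incubation. Signal is normalised to DMSO and benzethonium chloride controls. Value is the normalised response at dose 8.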

[26] = system: DU-4475; experiment: as above; remark: listed apart in the source
Description: as §3

[27] = system: CAL-148; experiment: as above; remark: listed apart in the source
Description: as §3

[28] = system: MDA-MB-453; experiment: as above; remark: listed apart in the source
Description: as §3

[29] = system: CAL-51; experiment: as above; remark: listed apart in the source
Description: as §3

[30] = system: CAL-85-1; experiment: as above; remark: listed apart in the source
Description: as §3

Work on `Cn1cncc1[C@@](N)(c1ccc(Cl)cc1)c1ccc2c(c1)c(-c1cccc(Cl)c1)cc(=O)n2C` [Tipifarnib] yielded a normalised viability ([1]; 10 nM) of 84.6%, a normalised viability ([2]; 3 nM) of 74.6% and a normalised viability ([3]; 10 nM) of 92.7%. For the same molecule, the normalised viability ([4]; 10 nM) was 109%, the normalised viability ([5]; 10 nM) was 77.6% and the normalised viability ([6]; 3 nM) was 99.4%. The normalised viability ([7]; 10 nM) was 82.2%, the normalised viability ([8]; 3 nM) was 92.2% and the normalised viability ([9]; 10 nM) was 95.6%. For the same molecule, the normalised viability ([10]; 10 nM) was 96.8%, the normalised viability ([11]; 10 nM) was 71.9% and the normalised viability ([12]; 3 nM) was 102%. For the same molecule, the normalised viability ([13]; 10 nM) was 88.9%, the normalised viability ([14]; 3 nM) was 108% and the normalised viability ([15]; 10 nM) was 94.1%. The normalised viability ([16]; 3 nM) was 81.4%, the normalised viability ([17]; 10 nM) was 86.3% and the normalised viability ([18]; 10 nM) was 91%. It also gave a drug sensitivity score [19] of 7.3, a drug sensitivity score [20] of 4.08 and a drug sensitivity score [21] of 2.13. For the same molecule, the drug sensitivity score [22] was 7.6, the drug sensitivity score [23] was 10.3 and the drug sensitivity score [24] was 4.5. The normalised viability ([25]; 3000 nM) was 66.8%, the normalised viability ([26]; 3000 nM) was 42% and the normalised viability ([27]; 3000 nM) was 42.6%. For the same molecule, the normalised viability ([28]; 3000 nM) was 50.1%, the normalised viability ([29]; 3000 nM) was 63.4% and the normalised viability ([30]; 3000 nM) was 65.2%.
In the case of `CC[C@]1(O)C[C@H]2CN(CCc3c([nH]c4ccccc34)[C@@](C(=O)OC)(c3cc4c(cc3OC)N(C=O)[C@H]3[C@@](O)(C(=O)OC)[C@H](OC(C)=O)[C@]5(CC)C=CCN6CC[C@]43[C@@H]65)C2)C1` [Vincristine], the normalised viability ([1]; 1 nM) is reported as 91.1%, the normalised viability ([1]; 10 nM) is reported as 85.5% and the normalised viability ([2]; 0.3 nM) is reported as 100%. It also gave a normalised viability ([2]; 3 nM) of 96.4%, a normalised viability ([3]; 1 nM) of 84.1% and a normalised viability ([3]; 10 nM) of 106%. It also gave a normalised viability ([4]; 1 nM) of 53.4%, a normalised viability ([4]; 10 nM) of 47.9% and a normalised viability ([5]; 1 nM) of 58.2%. It also gave a normalised viability ([5]; 10 nM) of 23.4%, a normalised viability ([6]; 0.3 nM) of 96.6% and a normalised viability ([6]; 3 nM) of 89%. It also gave a normalised viability ([7]; 1 nM) of 73.8%, a normalised viability ([7]; 10 nM) of 27.5% and a normalised viability ([8]; 0.3 nM) of 80.4%. For the same molecule, the normalised viability ([8]; 3 nM) was 85.3%, the normalised viability ([9]; 1 nM) was 99.2% and the normalised viability ([9]; 10 nM) was 23.1%. It also gave a normalised viability ([10]; 1 nM) of 54.2%, a normalised viability ([10]; 10 nM) of 41.2% and a normalised viability ([11]; 1 nM) of 71%. For the same molecule, the normalised viability ([11]; 10 nM) was 40.7%, the normalised viability ([12]; 0.3 nM) was 112% and the normalised viability ([12]; 3 nM) was 65%. It also gave a normalised viability ([13]; 1 nM) of 97.2%, a normalised viability ([13]; 10 nM) of 15.5% and a normalised viability ([14]; 0.3 nM) of 102%. For the same molecule, the normalised viability ([14]; 3 nM) was 103%, the normalised viability ([15]; 1 nM) was 105% and the normalised viability ([15]; 10 nM) was 70.6%. The normalised viability ([16]; 0.3 nM) was 95.6%, the normalised viability ([16]; 3 nM) was 86.1% and the normalised viability ([17]; 1 nM) was 82.7%. It also gave a normalised viability ([17]; 10 nM) of 43.7%, a normalised viability ([18]; 1 nM) of 33.8% and a normalised viability ([18]; 10 nM) of 15.9%. The drug sensitivity score [19] was 7.83, the drug sensitivity score [20] was 11.5 and the drug sensitivity score [21] was 10.1. For the same molecule, the drug sensitivity score [22] was 23, the drug sensitivity score [23] was 10.5 and the drug sensitivity score [24] was 16.6. The normalised viability ([25]; 300 nM) was 36.6%, the normalised viability ([25]; 3000 nM) was 38.9% and the normalised viability ([26]; 300 nM) was 14.8%. For the same molecule, the normalised viability ([26]; 3000 nM) was 6.84%, the normalised viability ([27]; 300 nM) was 20.4% and the normalised viability ([27]; 3000 nM) was 26.8%. For the same molecule, the normalised viability ([28]; 300 nM) was 36%, the normalised viability ([28]; 3000 nM) was 30.5% and the normalised viability ([29]; 300 nM) was 17.2%. The normalised viability ([29]; 3000 nM) was 10.4%, the normalised viability ([30]; 300 nM) was 40.6% and the normalised viability ([30]; 3000 nM) was 38.1%.
`COc1ccccc1S(=O)(=O)Nc1ccc2c(c1)CN(C)C(=O)N2` [PFI-1] was tested, and the drug sensitivity score [19] was 0, the drug sensitivity score [20] was 0 and the drug sensitivity score [21] was 1.98. For the same molecule, the drug sensitivity score [22] was 0, the drug sensitivity score [23] was 4.63 and the drug sensitivity score [24] was 4.98.
For `CC(C)(C#N)c1cc(Cn2cncn2)cc(C(C)(C)C#N)c1` [Anastrozole], the normalised viability ([1]; 10 nM) was 96.9%, the normalised viability ([2]; 3 nM) was 102% and the normalised viability ([3]; 10 nM) was 98%. It also gave a normalised viability ([4]; 10 nM) of 110%, a normalised viability ([5]; 10 nM) of 84.3% and a normalised viability ([6]; 3 nM) of 106%. For the same molecule, the normalised viability ([7]; 10 nM) was 96.3%, the normalised viability ([8]; 3 nM) was 93.3% and the normalised viability ([9]; 10 nM) was 90.3%. It also gave a normalised viability ([10]; 10 nM) of 102%, a normalised viability ([11]; 10 nM) of 73.5% and a normalised viability ([12]; 3 nM) of 104%. The normalised viability ([13]; 10 nM) was 99.4%, the normalised viability ([14]; 3 nM) was 112% and the normalised viability ([15]; 10 nM) was 109%. For the same molecule, the normalised viability ([16]; 3 nM) was 93.4%, the normalised viability ([17]; 10 nM) was 94% and the normalised viability ([18]; 10 nM) was 95.1%. For the same molecule, the drug sensitivity score [19] was 0, the drug sensitivity score [20] was 0 and the drug sensitivity score [21] was 0. The drug sensitivity score [22] was 0, the drug sensitivity score [23] was 0 and the drug sensitivity score [24] was 0. For the same molecule, the normalised viability ([25]; 3000 nM) was 85.3%, the normalised viability ([26]; 3000 nM) was 96.5% and the normalised viability ([27]; 3000 nM) was 87.2%. For the same molecule, the normalised viability ([28]; 3000 nM) was 103%, the normalised viability ([29]; 3000 nM) was 108% and the normalised viability ([30]; 3000 nM) was 82.8%.
With `Cn1c(=O)n(-c2ccc(C(C)(C)C#N)cc2)c2c3cc(-c4cnc5ccccc5c4)ccc3ncc21` [NVP-BEZ235] the normalised viability ([1]; 1 nM) was 99.1%, the normalised viability ([2]; 0.3 nM) was 110% and the normalised viability ([3]; 1 nM) was 104%. The normalised viability ([4]; 1 nM) was 105%, the normalised viability ([5]; 1 nM) was 89.8% and the normalised viability ([6]; 0.3 nM) was 125%. For the same molecule, the normalised viability ([7]; 1 nM) was 97.4%, the normalised viability ([8]; 0.3 nM) was 95.2% and the normalised viability ([9]; 1 nM) was 128%. The normalised viability ([10]; 1 nM) was 102%, the normalised viability ([11]; 1 nM) was 83.5% and the normalised viability ([12]; 0.3 nM) was 110%. It also gave a normalised viability ([13]; 1 nM) of 100%, a normalised viability ([14]; 0.3 nM) of 105% and a normalised viability ([15]; 1 nM) of 126%. For the same molecule, the normalised viability ([16]; 0.3 nM) was 96.6%, the normalised viability ([17]; 1 nM) was 101% and the normalised viability ([18]; 1 nM) was 105%. For the same molecule, the normalised viability ([25]; 300 nM) was 26.5%, the normalised viability ([26]; 300 nM) was 15.8% and the normalised viability ([27]; 300 nM) was 10.7%. The normalised viability ([28]; 300 nM) was 12.6%, the normalised viability ([29]; 300 nM) was 12.4% and the normalised viability ([30]; 300 nM) was 29.5%.
